{"source": "patent EP0361341A2", "about": "“Therapeutics for aids based on inhibitors of HIV protease” (MILES INC., priority 1988, dated 1990)", "test_system": "HIV-I", "experiment": "p24 antigen capture assay in HIV-I infected H9 lymphocytes (in vivo assay of HIV protease activity, Example 53)", "assay_type": "cell-based", "details": "H9 lymphocytes infected with HIV-I, three days at 37 C, relative to infected, untreated cultures; read-out: concentration showing 50% inhibition of p24 formation", "experimental": "A p24 capture assay (see Example 50 hereinbelow) provides an \"in vivo\" method for determining HIV-protease activity. The inhibitor is added to cells infected with HIV, […]. Inhibition of propagation of HIV-protease in cells is measured by the absence or presence of p24, which is generated by HIV protease.\nH9 lymphocytes (1x 10^7 cells/ml) were incubated in the presence or absence of HIV-I for 1 hour at 37 C. Cells were washed thoroughly to remove unadsorbed virions and resuspended at 4x10^5 cells/ml in culture medium. Aliquots (one milliliter) were placed in wells of 24 well culture plates containing an equal volume of test compound (diluted in culture medium). After incubation for three days at 37 C, cell density of uninfected cultures was determined to assess toxicity of test compound. A p24 antigen capture assay was used to determine the level of HIV infection in HIV treated cultures. The ability of test compounds to inhibit HIV replication was measured at different concentrations of test compound relative to infected, untreated cultures.", "data": [{"smiles": "CC[C@H](C)[C@H](NC(=O)[C@@H]1CCCN1CC(Cc1ccccc1)NC(=O)[C@H](CC(N)=O)NC(=O)[C@H](Cc1ccccc1)NC(=O)OC(C)(C)C)C(=O)OCc1ccccc1", "note": "(stereo partly drawn) [Example 25, N-[N-[2-[[N2-[N-[(1,1-Dimethylethoxy)carbonyl]-L-phenylalanyl]-L-asparagyl]amino]-3-phenylpropyl]-L-prolyl]-L-isoleucinbenzylester]", "values": [{"measurement": "IC50", "result": 200, "unit": "µM"}]}]}
